One test concerns sebocytes. To be noted: known effect of reference compound; cited from earlier work.
Test [1] relates to SSG3 cells. In words: Lipogenesis assays (Nile red, Oil red O, electron microscopy, Nile red FACS) in SSG3 cells. In kind it is cell-based, human. How it is done: (§1) For Nile red staining, cells or OCT sections were fixed 10 minutes at room temperature in 4% formaldehyde. After 3 wash in 1×PBS, staining with 0.1 pg/ml of Nile red (Sigma) was performed in 0.15M NaCl for 15 minutes at room temperature. For Oil red 0 staining, cells were fixed 15 minutes in 10% formalin, wash with water for 10 minutes and 60% isopropanol before being stained with Oil red 0 (0.7% in 60% isopropanol) for 45 minutes. Cells were rinsed with 60% isopropanol and the nuclei stained with haematoxylin. To trigger differentiation of sebocytes in vitro, linoleic acid (Sigma, 0.1 mM) was added directly to sebocyte media. To prepare cells for extraction of lipids, 20-30 millions of cells were pelleted, washed with 1×PBS and lipid were preserved in the dark at −80° C. under argon until analysis. The qualitative and quantitative composition of lipids in scalp-derived human sebocytes was determined using an Agilent 5973N Gas chromatograph/Mass spectrometer with a SPE cartridge (solid phase extraction) and was performed by Synelvia S.A.S (Labege, France).
Cells were cultured in 6-well plates at 80% confluence and infected with the lentivirus expressing the shRNAs as previously described. After puromycin selection for 48 h, cells were washed in 1×PBS and treated with working medium with or without Linoleic acid (0.1 mM) for 24 h. The cells were trypsinized, washed once with 1×PBS and neutral lipids were labeled with the fluorescent dye Nile red (1 pg/ml in PBS). 10,000 cells per sample were analyzed using a FACS Canto I (BD Biosciences) equipped with a blue laser (488 nm excitation).
Cells were grown at 80% confluency in sebocyte media and rinsed once with 0.175M sodium cacodylate buffer. Cells were fixed in 3% glutaraldehyde/0.175M cacodylate buffer for 1 hour at 4° C. Dishes were washed twice with 0.175M sodium cacodylate buffer. Cells were post fixed in 1% osmium tetroxide/cacodylate buffer for 1 hour at 4° C. before being washed three times with 0.175M sodium cacodylate buffer. After the final wash with 1.5 ml, cells were scraped and centrifuged for 5 min at 10K. The cell pellet was then resuspended in 1 ml 1% agarose (Type IX ultra-low gelling tempt, Sigma) overnight at 4° C. The samples were then processed through a graded series of alcohols, infiltrated and embedded in LX-112 resin (Ladd Research, Williston, Vt. After polymerization at 60° C. for three days, ultrathin sections (100 nm) were cut using a Reichert-Jung Ultracut E microtome and counterstained in 2% aqueous uranyl acetate and Reynolds lead citrate. Images were taken with a transmission electron microscope (Hitachi H-6750) equipped with a digital camera (AMT 2k×2K tem CCD).

The test system of test [2] is SSG3 cells. Kind of test: Real-time PCR of lipogenic gene expression in primary SSG3 sebocytes. The format is cell-based, human. How it is done:
To ablate TGFβRII in SSG3 cells, shRNA vectors from the CCHMC Heart Institute lenti-shRNA library core (shRNA TGFβRII #197031 and 194992 and a shRNA control) were used. The human library was purchased from Sigma-Aldrich (MISSION shRNA; St. Louis, Mo.). Viral vector was produced by the Viral Vector Core at the Translational Core Laboratories, Cincinnati Children's Hospital Research Foundation. Cells were grown to 80% confluency in 6-well plates before being infected with the lentivirus for 48 h. Infected cells were selected with 1 µg/ml puromycin (Sigma) for 48 h. Following selection, TGFβRII knock down cells were grown in regular media for 48 h before being activated with 5 ng/ml TGFβ1 for 24 h.
(§2) Total RNA was isolated using a Rneasy Mini Kit (Qiagen, Germantown, Md.) and used to produce cDNA (Maxima first strand cDNA synthesis kit, Fermentas, Waltham, Mass.). Reverse transcription (RT) reactions were diluted to 10 ng/pl and 1 pl of each RT was used for real-time PCR. Real-time PCR was performed using the CFX96 real-time PCR System, CFX Manager Software and the SsoFast EvaGreen Supermix reagents (Biorad, Hercules, Calif.). All reactions were run in triplicate and analyzed using the […] with relative expression normalized to GAPDH.
as §1

For test [3], the system named is SEB-1. Kind of test: Real-time PCR of PPARγ expression in immortalized sebocyte line SEB-1. To be noted: SEB-1, 0.1 mM linoleic acid, 48 h, vs untreated. In kind it is cell-based, human. How it is done: as §2
as §1, with “To trigger differentiation of sebocytes in vitro, linoleic acid (Sigma, 0.1 mM) was added directly to sebocyte media. To prepare cells for extraction of lipids, 20-30 millions of cells were pelleted, washed with 1×PBS and lipid were preserved in the dark at −80° C. under argon until analysis.” left out

For a further test, the system named is SSG3 sebocytes. Kind of test: Immunoblot of Smad2 phosphorylation in SSG3 sebocytes. The format is cell-based, human. Conditions: 5 ng/ml TGFβ1, one hour.
The test system of test [4] is sebocytes-derived from breast and face. Kind of test: Real-time PCR of lipogenic genes in breast- and face-derived sebocytes. The format is cell-based, human. Conditions: 5 ng/ml TGFβ1, 24 h. How it is done:
as §2
RNA was isolated from sebocytes-derived from breast and face untreated or treated with 5 ng/ml of TGFβ1 for 24 h and used for real-time PCR. Two experiments were performed and all qPCR reactions were performed in triplicate. Data were normalized to GAPDH expression for each cell population and changes in relative expression were determined using untreated cells as a reference point.

The test system of test [5] is SEB-1. In words: Immunoblot of Smad2 phosphorylation in SEB-1. Conditions: 5 ng/ml TGFβ1, one hour. In kind it is cell-based, human.
The next test concerns NIKS. Kind of test: Immunoblot of Smad2 phosphorylation in NIKS keratinocytes. In kind it is cell-based, human. To be noted: 5 ng/ml TGFβ1, one hour.
Where [6] appears, read: SSG3, 5 ng/ml TGFβ1, 24 h, vs untreated.
[7] abbreviates: TGFβRII-deficient SSG3 cells, TGFβ1.

Consider `C[C@]12CCC(=O)C[C@@H]1CC[C@@H]1[C@@H]2CC[C@]2(C)[C@@H](O)CC[C@@H]12` [5α-DHT, di-hydrotestosterone], for which, in the test with sebocytes, the effect on lipogenesis entry is “increase lipogenesis” and the effect on proliferation entry is “increase proliferation”.
For the compound `CC(=O)O[C@]1(C(C)=O)CC[C@H]2[C@@H]3C=C(Cl)C4=CC(=O)[C@@H]5C[C@@H]5[C@]4(C)[C@H]3CC[C@@]21C` [Cyproteron acetate], the effect on lipogenesis entry with sebocytes is given as “decrease lipogenesis”.
With `C[C@]12CC[C@H](O)CC1=CC[C@@H]1[C@@H]2CC[C@]2(C)C(=O)CC[C@@H]12` [DHEA, 5-Dehydroepiandrosterone], the effect on lipogenesis result with sebocytes is “increase lipogenesis”.
Take `CC1=C(/C=C/C(C)=C/C=C/C(C)=C\C(=O)O)C(C)(C)CCC1` [Isotretinoin, 13-cis retinoic acid]: in the test with sebocytes, the “effect on cell cycle” value was “cell cycle arrest” and the effect on proliferation result is recorded as “anti-proliferative effect on sebocytes”.
With `CN(CCOc1ccc(CC2SC(=O)NC2=O)cc1)c1ccccn1` (stereo not shown) [Rosglitazone], in the test on sebocytes, the effect on lipogenesis result was “decrease lipogenesis”.
For the compound `CCCCC/C=C\C/C=C\CCCCCCCC(=O)O` [linoleic acid], in the test on SSG3 cells [1] (SSG3, 0.1 mM linoleic acid, 24 h), the “Nile red flow cytometry: fluorescence (neutral lipids) and granularity” value was “increase of fluorescence and granularity”. Moreover, the “lipid droplets by electron microscopy” value with SSG3 cells [1] (SSG3, after linoleic acid treatment vs untreated) was “increase of lipid droplets with higher electron density”. In addition, the “cellular lipid distribution by Nile red stain” value in the test with SSG3 cells [1] (SSG3, two days of linoleic acid treatment (0.1 mM)) was “producing lipids”. The FADS2 expression entry with SSG3 cells [2] (SSG3 cells, 0.1 mM linoleic acid, 24 h and 48 h, vs untreated) is given as “significant increase of FADS2 expression”. Besides, the PPARγ expression entry in the test with SSG3 cells [2] (SSG3 cells, 0.1 mM linoleic acid, 48 h, vs untreated) was “increase in PPARγ”; with SEB-1 [3], “do not show any significant changes”.
For “TGFβ1: exogenously recombinant TGFβ1, Transforming Growth Factor β ligand”, in the test with SSG3 sebocytes, the “Smad2 activation (phosphorylated Smad2)” value was “activate Smad2”. In addition, in the test on SSG3 cells [1] (SSG3 expressing TGFβRII shRNA, TGFβ1 5 ng/ml, 24 h), the lipid production entry is on record as “no effect on the lipid production”. Further, the lipid inclusion entry with SSG3 cells [1] (SSG3 with non-targeting shRNA control, TGFβ1 5 ng/ml, 24 h) was “decrease in lipid inclusion”. In the test on SSG3 cells [2] (setting [6]), the “mRNA expression of FADS2” value is given as “significantly decreased” and the “mRNA expression of PPARγ” value is recorded as “significantly decreased”. In addition, in the test on SSG3 cells [2] (setting [7]), the “decrease in FADS2 gene expression after TGFβ1” value is “not detected” and the “decrease in PPARγ gene expression after TGFβ1” value is recorded as “not detected”. The TGFβRII expression result with SSG3 cells [2] (control SSG3 cells treated with TGFβ for 24 h) was “decrease of TGFβRII”. Besides, in test [4], the FADS2 expression result is on record as “decreased significantly” and the PPARγ expression result is “decreased significantly”. Besides, the “Smad2 activation (phosphorylated Smad2)” value in the test on SEB-1 [5] is “activate Smad2”. Besides, in the test with NIKS, the “Smad2 activation (phosphorylated Smad2)” value is on record as “activate Smad2”.

The values are drawn from patent publication US20150268254A1, “SEBOCYTE CELL CULTURING AND METHODS OF USE” (Children's Hospital Medical Center, priority 2012, published 2015).
